Values joined by “and” are separate entries in the source; they are usually repeats but may differ in a detail not shown here. Equal entries are not always repeated.
Assays:
[1] = test system: Raji cells; test: Cell viability assay (CellTiter-Glo luminescence); type: cell-based, human; conditions: for Cell viability (luminescence): 72 h, duplicates
Experimental: (§1) 5000 cells as indicated were cultured in 96-well plate with 100 μl of media. […] After treatment, the cells were incubated with 100 μl buffer for 10 min at room temperature following the instructions of CellTiter-Glo kit (Promega, Madison, WI). Luminescence was detected using a multi-mode reader Cytation 5 (BioTek, Winooski, VT). […] Two independent experiments done in duplicates were performed.

[2] = test system: SU-DHL-4 cells; test: Cell viability assay (CellTiter-Glo luminescence); type: cell-based, human; conditions: SU-DHL-4, 100 nM, 48 h post-treatment
Experimental: as §1

[3] = test system: hematologic malignancies derived cell lines; test: Cell viability assay, panel of hematologic malignancy derived cell lines; type: cell-based, human; conditions: 100 nM, 72 h, lymphoma, leukemia and multiple myeloma cell lines (13 cell lines for analogs)
Method in brief: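 Cells seeded at 5000 per well, next day treated once with brusatol or analogues without media change. Viability read as CellTiter-Glo luminescence after 10 min at room temperature. Two independent experiments in duplicate.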

[4] = test system: LCL1 cells; test: Real-time PCR, mRNA expression; type: cell-based, human
Experimental: (§2) Real-time PCR experiments were performed as previously described. The experiments were performed in triplicate.

[5] = test system: Raji cells; test: Real-time PCR, mRNA expression; type: cell-based, human
Experimental: as §2

[6] = test system: HL-60 cells; test: Western blot of PI3K/AKT signaling proteins; type: cell-based, human; conditions: HL-60, 0, 50 nM, 100 nM; 0, 12 h, 24 h
Experimental: (§3) Western blot analyses were performed as previously described. Briefly, total cell lysates were separated by SDS-PAGE gel and transferred to nitrocellulose membrane. The membranes were blocked with 5% non-fat milk, probed with specific antibodies, and visualized using the Odyssey scanner (LiCor Inc., Lincoln, NE).

[7] = test system: K562 cells; test: Western blot of PI3K/AKT signaling proteins; type: cell-based, human; conditions: K562, 0, 50 nM, 100 nM; 0, 12 h, 24 h
Experimental: as §3

[8] = test system: LCL1 cells; test: Western blot of PI3K/AKT signaling proteins; type: cell-based, human; conditions: LCL1, Fig. 2i
Experimental: as §3

[9] = test system: Raji cells; test: Western blot of PI3K/AKT signaling proteins; type: cell-based, human
Experimental: as §3

[10] = test system: SU-DHL-4 cells; test: Western blot of PI3K/AKT signaling proteins; type: cell-based, human; conditions: SU-DHL-4, 0, 50 nM, 100 nM; 0, 12 h, 24 h
Experimental: as §3

[11] = test system: PIK3CG knock-out Raji cells; test: Western blot of PI3K/AKT associated proteins in knock-out cells; type: cell-based, human; conditions: 100 nM, 72 h
Experimental: as §3
Oligos were obtained from Integrated DNA Technologies (IDT; Coralville, IA, USA) and cloned into the lentiviral vector lentiCRISPR v2 (Addgene #52961)[66]. Lentivirus production and transduction have been described previously. Here, Raji cells were transduced with a lentivirus harboring lentiCRISPR v2 vector or a construct containing the guide sequence ([…]) against PIK3CG gene. At 48 h post-transduction, cells were selected with puromycin and harvested to determine PIK3CG expression with western blot.

[12] = test system: MOLM14 xenografts; test: In vivo tumorigenic assay using xenografts, tumor size; set-up: species or system NOD/SCID mice; conditions: MOLM14 xenograft
Method in brief: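 Male NOD/SCID mice, six weeks old, received 1 × 10^7 MOLM14 cells subcutaneously in the left flank. Body weight and tumor size tracked before each injection over 2 weeks of treatment; excised tumor volume calculated as (a × b × b)/2.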

**Q.** Which “inhibition of viability (cells inhibited)” value ([1]; 100 nM, 48 h post-treatment) does the source give for Brusatol here?
**A.** Its value is “more than 80%”.

**Q.** What about the “Cell viability (luminescence)” value ([1]; cell number 0, 100 nM) of the same substance?
**A.** The value was 0.9927 and 1.007.

**Q.** What about the “Cell viability (luminescence)” value ([1]; cell number 625, 100 nM) of the same substance?
**A.** The value was 3.94 and 4.0527.

**Q.** What about the “Cell viability (luminescence)” value ([1]; cell number 1250, 100 nM) of the same substance?
**A.** Its value is 7.303 and 7.093.

**Q.** And the “Cell viability (luminescence)” value ([1]; cell number 2500, 100 nM)?
**A.** Its value is 8.911 and 8.321.

**Q.** What about the “Cell viability (luminescence)” value ([1]; cell number 5000, 100 nM) of the same substance?
**A.** Its value is 13.6562 and 12.7698.

**Q.** And the “Cell viability (luminescence)” value ([1]; cell number 10000, 100 nM)?
**A.** The value was 11.8436 and 13.905.

**Q.** What about the “inhibition of viability (cells inhibited)” value [2] of the same substance?
**A.** The value was “more than 80%”.

**Q.** And the “inhibition of cell viability in panel of cell lines” value [3]?
**A.** The value was “broad and potent inhibitory effects”.

**Q.** And the “mRNA levels of AKT1, ATF3, PIK3CG, and PIK3C2B” value [4]?
**A.** Its value is “downregulated”.

**Q.** What about the “mRNA levels of AKT1, ATF3, PIK3CG, and PIK3C2B” value [5] of the same substance?
**A.** Its value is “downregulated”.

**Q.** And the “protein expression of AKT1, GSK3, and mTOR” value (“protein expression of AKT1” for short) [6]?
**A.** Its value is “minimally affected”.

**Q.** And the “protein expression of AKT1” value [7]?
**A.** Its value is “minimally affected”.

**Q.** What about the “levels of AKT1 and GSK3 proteins” value [8] of the same substance?
**A.** Its value is “decreased”.

**Q.** What about the “protein expression of AKT1” value ([9]; Raji, 0, 50 nM, 100 nM, 0, 12 h, 24 h) of the same substance?
**A.** Its value is “substantially reduced”.

**Q.** And the “levels of AKT1 and GSK3 proteins” value ([9]; Raji, Fig. 2h)?
**A.** Its value is “decreased”.

**Q.** And the “protein expression of AKT1” value [10]?
**A.** The value was “substantially reduced”.

**Q.** And the AKT1 level [11]?
**A.** The AKT1 level was “no obvious decrease”.

**Q.** What about the “tumor size (Fig 5d&5e), individual mice” value ([12]; 0d) of the same substance?
**A.** The value was 79.6409 and 170.904 and 81.1118 and 93.0315 and 105.314 and 98.3496.

**Q.** What about the “tumor size (Fig 5d&5e), individual mice” value ([12]; 2d) of the same substance?
**A.** Its value is 114.921 and 89.4339 and 85.1926 and 118.807 and 122.531 and 72.1684.

**Q.** What about the “tumor size (Fig 5d&5e), individual mice” value ([12]; 4d) of the same substance?
**A.** Its value is 71.6608 and 87.7482 and 91.4458 and 96.2719 and 66.2604 and 63.9219.

**Q.** What about the “tumor size (Fig 5d&5e), individual mice” value ([12]; 6d) of the same substance?
**A.** Its value is 86.9292 and 188.062 and 142.989 and 148.569 and 65.5816 and 390.002.

**Q.** What about the “tumor size (Fig 5d&5e), individual mice” value ([12]; 8d) of the same substance?
**A.** The value was 191.246 and 199.336 and 280.113 and 250.93 and 138.38 and 152.733.

**Q.** What about the “tumor size (Fig 5d&5e), individual mice” value ([12]; 10d) of the same substance?
**A.** The value was 255.462 and 401.539 and 386.529 and 187.744 and 278.266.

**Q.** And the “tumor size (Fig 5d&5e), individual mice” value ([12]; 12d)?
**A.** The value was 394.032 and 649.634 and 755.109 and 281.476 and 493.005.

From article PMC7253423, “Quassinoid analogs with enhanced efficacy for treatment of hematologic malignancies target the PI3Kγ isoform” (Communications Biology, 2020)
